# Source: ChEMBL document CHEMBL1795338, “Identification of pentacyclic triterpenes derivatives as potent inhibitors against glycogen phosphorylase based on 3D-QSAR studies” (Eur J Med Chem, 2011)
# pIC50: −log10 of the molar value.
# Biological target: T1, Glycogen phosphorylase, muscle form (Oryctolagus cuniculus, UniProt P00489)
# T1 sequence (P00489 whole entry): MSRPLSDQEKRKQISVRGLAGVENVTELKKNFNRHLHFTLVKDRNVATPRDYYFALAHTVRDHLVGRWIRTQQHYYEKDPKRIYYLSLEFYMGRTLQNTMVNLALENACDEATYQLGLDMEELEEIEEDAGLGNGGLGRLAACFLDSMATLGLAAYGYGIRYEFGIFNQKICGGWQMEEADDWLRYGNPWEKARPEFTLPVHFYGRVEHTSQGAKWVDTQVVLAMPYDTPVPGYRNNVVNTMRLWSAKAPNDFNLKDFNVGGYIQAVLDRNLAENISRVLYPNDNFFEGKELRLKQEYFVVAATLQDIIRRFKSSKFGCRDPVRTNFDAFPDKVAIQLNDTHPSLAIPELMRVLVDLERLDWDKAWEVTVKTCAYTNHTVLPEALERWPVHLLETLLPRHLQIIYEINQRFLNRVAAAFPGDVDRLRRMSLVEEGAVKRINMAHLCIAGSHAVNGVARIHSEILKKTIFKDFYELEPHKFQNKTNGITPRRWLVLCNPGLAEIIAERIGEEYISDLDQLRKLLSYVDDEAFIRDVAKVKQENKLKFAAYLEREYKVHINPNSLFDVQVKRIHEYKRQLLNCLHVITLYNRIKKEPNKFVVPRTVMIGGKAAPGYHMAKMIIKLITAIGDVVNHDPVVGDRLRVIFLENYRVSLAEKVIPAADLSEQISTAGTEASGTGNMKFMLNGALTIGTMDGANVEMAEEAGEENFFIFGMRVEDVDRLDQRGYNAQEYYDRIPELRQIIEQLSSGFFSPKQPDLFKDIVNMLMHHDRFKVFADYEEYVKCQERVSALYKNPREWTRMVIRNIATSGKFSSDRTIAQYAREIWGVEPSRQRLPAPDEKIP
# Assay: Inhibition of rabbit muscle glycogen phosphorylase A assessed as release of phosphate from glucose-1-phosphate after 25 mins by microplate reader based method
row,Structure (SMILES),pIC50
1,C[C@H]1[C@H](C)CC[C@]2(C(=O)OC3CC3)CC[C@]3(C)C(=CC[C@@H]4[C@@]5(C)C[C@@H](O)[C@H](O)C(C)(C)[C@@H]5CC[C@]43C)[C@H]12,4.04
2,CC(=O)n1cc2c(n1)C(C)(C)[C@@H]1CC[C@]3(C)[C@H](CC=C4[C@@H]5CC(C)(C)CC[C@]5(C(=O)O)CC[C@]43C)[C@@]1(C)C2,4.27
3,CC1(C)CC[C@]2(C(=O)OCc3ccccc3)CC[C@]3(C)C(=CC[C@@H]4[C@@]5(C)C/C(=N\O)C(=O)C(C)(C)[C@@H]5CC[C@]43C)[C@@H]2C1,4.33
4,CC(=O)O[C@H]1CC[C@]2(C)[C@H]3CC=C4[C@@H]5[C@@H](C)[C@H](C)CC[C@]5(C(=O)O)CC[C@@]4(C)[C@]3(C)CC[C@H]2C1(C)C [O-ACETYLURSOLIC ACID],3.88
5,CC1(C)CC[C@]2(C(=O)OCc3ccccc3)CC[C@]3(C)C(=CC[C@@H]4[C@@]5(C)C/C(=N\O)[C@H](O)C(C)(C)[C@@H]5CC[C@]43C)[C@@H]2C1,3.75
6,CC1(C)CC[C@]2(C(=O)OCC(=O)O)CC[C@]3(C)C(=CC[C@@H]4[C@@]5(C)CC[C@H](O)C(C)(C)[C@@H]5CC[C@]43C)[C@@H]2C1,4.20
7,CC1(C)CC[C@]2(C(=O)OCc3ccccc3)CC[C@]3(C)[C@H]([C@H](O)C[C@@H]4[C@@]5(C)CC[C@H](O)C(C)(C)[C@@H]5CC[C@]43C)[C@@H]2C1,5.27
8,CC1(C)CC[C@]2(C(=O)OCc3ccccc3)CC[C@]3(C)C(=CC[C@@H]4[C@@]5(C)Cc6cn(Cc7ccccc7)nc6C(C)(C)[C@@H]5CC[C@]43C)[C@@H]2C1,3.90
9,C[C@H]1[C@H](C)CC[C@]2(C(=O)O)CC[C@]3(C)C(=CC[C@@H]4[C@@]5(C)CC[C@H](OC(=O)CCC(=O)O)C(C)(C)[C@@H]5CC[C@]43C)[C@H]12,4.56
10,CC1(C)CC[C@]2(C(=O)O)CC[C@]3(C)C(=CC[C@@H]4[C@@]5(C)Cc6nc7ccccc7nc6C(C)(C)[C@@H]5CC[C@]43C)[C@@H]2C1,4.85
11,CC1(C)CC[C@]2(C(=O)OCc3ccccc3)CC[C@]3(C)C(=CC[C@@H]4[C@@]5(C)C[C@H](O)[C@H](O)C(C)(C)[C@@H]5CC[C@]43C)[C@@H]2C1 [BENZYL AUGUSTATE],4.66
12,COC(=O)[C@H](Cc1ccc(O)cc1)NC(=O)[C@]12CC[C@@H](C)[C@H](C)[C@H]1C1=CC[C@@H]3[C@@]4(C)C[C@@H](OC(C)=O)[C@H](OC(C)=O)C(C)(C)[C@@H]4CC[C@@]3(C)[C@]1(C)CC2,4.95
13,COc1ccc(-n2ncc3c2C(C)(C)[C@@H]2CC[C@]4(C)[C@H](CC=C5[C@@H]6CC(C)(C)CC[C@]6(C(=O)OCc6ccccc6)CC[C@]54C)[C@@]2(C)C3)cc1,4.88
14,CC1(C)CC[C@]2(C(=O)OCc3ccccc3)CC[C@]3(C)C(=CC[C@@H]4[C@@]5(C)Cc6cnn(-c7ccc(Cl)cc7)c6C(C)(C)[C@@H]5CC[C@]43C)[C@@H]2C1,4.95
15,CCCCNCCCCCCOC(=O)[C@]12CCC(C)(C)C[C@H]1C1=CC[C@@H]3[C@@]4(C)CC[C@H](O)C(C)(C)[C@@H]4CC[C@@]3(C)[C@]1(C)CC2,4.90
16,CC(=O)O[C@H]1CC[C@]2(C)[C@H]3CC=C4[C@@H]5[C@@H](C)[C@H](C)CC[C@]5(C(=O)OC[C@H](O)[C@H]5OC(=O)C(O)=C5O)CC[C@@]4(C)[C@]3(C)CC[C@H]2C1(C)C,5.82
17,CC1(C)CC[C@]2(C(=O)O)CC[C@]3(C)C(=CC[C@@H]4[C@@]5(C)CC[C@H](OC(=O)CCC(=O)O)C(C)(C)[C@@H]5CC[C@]43C)[C@@H]2C1 [OLEANOLIC ACID 3-O-SUCCINATE],4.46
18,CC1(C)CC[C@]2(C(=O)OCc3ccccc3)CC[C@]3(C)C(=CC[C@@H]4[C@@]5(C)CC[C@H](OC(=O)CN=[N+]=[N-])C(C)(C)[C@@H]5CC[C@]43C)[C@@H]2C1,4.90
19,C[C@H]1[C@H](C)CC[C@]2(C(=O)OCc3ccccc3)CC[C@]3(C)C(=CC[C@@H]4[C@@]5(C)C[C@H](O)[C@@H](O)C(C)(C)[C@@H]5CC[C@]43C)[C@H]12,5.90
20,CC(=O)O[C@@H]1O[C@H](OC(=O)[C@]23CCC(C)(C)C[C@H]2C2=CC[C@@H]4[C@@]5(C)C[C@@H](O)[C@H](O)C(C)(C)[C@@H]5CC[C@@]4(C)[C@]2(C)CC3)[C@@H](OC(C)=O)[C@H](OC(C)=O)[C@H]1OC(C)=O,4.73
21,C[C@H]1[C@H](C)CC[C@]2(C(=O)OCc3ccccc3)CC[C@]3(C)C(=CC[C@@H]4[C@@]5(C)C[C@@H]6O[C@@H]6C(C)(C)[C@@H]5CC[C@]43C)[C@H]12,4.16
22,C[C@H]1[C@H](C)CC[C@]2(C(=O)OCCBr)CC[C@]3(C)C(=CC[C@@H]4[C@@]5(C)CC[C@H](O)C(C)(C)[C@@H]5CC[C@]43C)[C@H]12,4.99

row,Structure (SMILES),pIC50
1,COc1ccc(/C=C\C(=O)O[C@H]2CC[C@]3(C)[C@H]4CC=C5[C@@H]6CC(C)(C)CC[C@]6(C(=O)O)CC[C@@]5(C)[C@]4(C)CC[C@H]3C2(C)C)cc1,4.77
2,CC1(C)CC[C@]2(C(=O)OCc3ccccc3)CC[C@]3(C)C(=CC[C@@H]4[C@@]5(C)Cc6cn(C7CC7)nc6C(C)(C)[C@@H]5CC[C@]43C)[C@@H]2C1,4.69
3,CC1(C)CC[C@]2(C(=O)O)CC[C@]3(C)C(=CC[C@@H]4[C@@]5(C)Cc6cnn(-c7ccccc7)c6C(C)(C)[C@@H]5CC[C@]43C)[C@@H]2C1,4.45
4,CNCCOC(=O)[C@]12CCC(C)(C)C[C@H]1C1=CC[C@@H]3[C@@]4(C)CC[C@H](O)C(C)(C)[C@@H]4CC[C@@]3(C)[C@]1(C)CC2,4.27
5,CC1(C)CC[C@]2(C(=O)O)CC[C@]3(C)C(=CC[C@@H]4[C@@]5(C)C[C@H](O)CC(C)(C)[C@@H]5CC[C@]43C)[C@@H]2C1,4.64
6,C[C@H]1[C@H](C)CC[C@]2(C(=O)OCc3ccccc3)CC[C@]3(C)C(=CC[C@@H]4[C@@]5(C)C[C@H](O)[C@H](O)C(C)(C)[C@@H]5CC[C@]43C)[C@H]12,3.97
7,CCC(=O)O[C@@H]1C[C@]2(C)[C@H]3CC=C4[C@@H]5[C@@H](C)[C@H](C)CC[C@]5(C(=O)O)CC[C@@]4(C)[C@]3(C)CC[C@H]2C(C)(C)[C@H]1OC(=O)CC,4.13
8,CC1(C)CC[C@]2(C(=O)O)CC[C@]3(C)C(=CC[C@@H]4[C@@]5(C)CC[C@H](OC(=O)/C=C\c6ccc(Cl)cc6)C(C)(C)[C@@H]5CC[C@]43C)[C@@H]2C1,5.48
9,CC1(C)CC[C@]2(C(=O)O)CC[C@]3(C)C(=CC[C@@H]4[C@@]5(C)C[C@H](O)[C@H](O)[C@@](C)(CO)[C@@H]5CC[C@]43C)[C@@H]2C1,4.17
10,CCCOC(=O)[C@]12CC[C@@H](C)[C@H](C)[C@H]1C1=CC[C@@H]3[C@@]4(C)C[C@@H](O)[C@H](O)C(C)(C)[C@@H]4CC[C@@]3(C)[C@]1(C)CC2,4.08
11,CCCCOC(=O)[C@]12CC[C@@H](C)[C@H](C)[C@H]1C1=CC[C@@H]3[C@@]4(C)C[C@@H](O)[C@H](O)C(C)(C)[C@@H]4CC[C@@]3(C)[C@]1(C)CC2,4.04
12,COC(=O)[C@H](Cc1ccccc1)NC(=O)[C@]12CC[C@@H](C)[C@H](C)[C@H]1C1=CC[C@@H]3[C@@]4(C)C[C@@H](OC(C)=O)[C@H](OC(C)=O)C(C)(C)[C@@H]4CC[C@@]3(C)[C@]1(C)CC2,4.62
13,CC1(C)CC[C@]2(C(=O)O)CC[C@]3(C)C(=CC[C@@H]4[C@@]5(C)C[C@@H](O)CC(C)(C)[C@@H]5CC[C@]43C)[C@@H]2C1,4.79
14,CC(=O)O[C@H]1CC[C@]2(C)[C@H]3CC=C4[C@@H]5CC(C)(C)CC[C@]5(C(=O)OC[C@H](O)[C@H]5OC(=O)C(O)=C5O)CC[C@@]4(C)[C@]3(C)CC[C@H]2C1(C)C,5.65
15,CC1(C)CC[C@]2(C(=O)OCCCCCCN)CC[C@]3(C)C(=CC[C@@H]4[C@@]5(C)CC[C@H](O)C(C)(C)[C@@H]5CC[C@]43C)[C@@H]2C1,4.85
16,CCOC(=O)Cn1cc2c(n1)C(C)(C)[C@@H]1CC[C@]3(C)[C@H](CC=C4[C@@H]5CC(C)(C)CC[C@]5(C(=O)OCc5ccccc5)CC[C@]43C)[C@@]1(C)C2,3.95
17,COC(=O)[C@H](Cc1ccc(OCc2cn(CC(=O)O[C@H]3CC[C@]4(C)[C@H]5CC=C6[C@@H]7CC(C)(C)CC[C@]7(C(=O)OCc7ccccc7)CC[C@@]6(C)[C@]5(C)CC[C@H]4C3(C)C)nn2)cc1)NC(=O)OC(C)(C)C,4.76
18,C[C@H]1[C@H](C)CC[C@]2(C(=O)OCc3ccccc3)CC[C@]3(C)C(=CC[C@@H]4[C@@]5(C)C[C@H](O)CC(C)(C)[C@@H]5CC[C@]43C)[C@H]12,4.65
19,CCC(=O)n1cc2c(n1)C(C)(C)[C@@H]1CC[C@]3(C)[C@H](CC=C4[C@@H]5CC(C)(C)CC[C@]5(C(=O)O)CC[C@]43C)[C@@]1(C)C2,4.43
20,CC(=O)O[C@@H]1C[C@]2(C)[C@H]3CC=C4[C@@H]5[C@@H](C)[C@H](C)CC[C@]5(C(=O)O)CC[C@@]4(C)[C@]3(C)CC[C@H]2C(C)(C)[C@H]1OC(C)=O,4.46
21,CC1(C)CC[C@]2(C(=O)O)CC[C@]3(C)C(=CC[C@@H]4[C@@]5(C)Cc6nccnc6C(C)(C)[C@@H]5CC[C@]43C)[C@@H]2C1,4.60
